Tested on: focal onset seizures induced by electrostimulation of 44 mA, 6 Hz, 3 sec in ICR mouse
Test: 6 Hz method for screening anticonvulsants (6 Hz, 44 mA electrostimulation)
Type: in vivo
Conditions: male ICR mice, intraperitoneal (ip), electrostimulation 44 mA, 3 sec to the eye, number of non-seizure animals/number of animals used
Excerpt: The utility of the compounds according to the present invention as an anticonvulsant agent has been investigated by the 6 Hz method, which has been well established as pharmacological screening methods of convulsant agents for focal onset seizures. The procedure of the 6 Hz method for screening anticonvulsant was as follows:
1) Preparation of Experimental Animals
Male ICR mice are purchased from Orient Bio, Inc. of Korea, and are stored and managed according to laboratory animal management standards of the Institutional Animal Care and Use Committee (IACUC) by putting the same in a wire net cage under an environment in which an ambient temperature of 19 to 25° C., 40 to 60% relative humidity and 12 hour periods of light/dark were auto-controlled, and water was freely taken. After stabilization for a week, mice with a body weight of 18 to 23 g were used in the experiment.
2) Evaluation of the Anticonvulsant Effect of a Compound
5% Tetracaine (Sigma) was added to both eyes to provide a local anesthetic effect at 5 to 10 minutes before the period of electrical stimulation at the animal ICR mouse. The compounds to be tested were dissolved in distilled water in which 30% polyethylene glycol 300+5% dimethylsulfoxide+5% Cremophor was dissolved and administered intraperitoneally (ip) to the animal at a dosage volume of 10 mL/kg. Then, electrostimulation of 44 mA, 6 Hz, and 3 sec was applied to the eye to induce focus-generating seizures. After the electrical stimulation, the presence of seizures due to drug effects was confirmed, and the ratio of animals showing no seizures was expressed as a protection rate (the number of non-seizure animals/the number of animals used in experiments=protection rate). […]

Structure (SMILES)	6 Hz, 44 mA protection rate
Cc1nnc(CC(O)c2cc(-c3ccc(Cl)cc3)ccc2F)o1 (stereo not drawn) [Example 1, 1-[5-(4-chlorophenyl)-2-fluoro-phenyl]-2-(5-methyl-1,3,4-oxadiazol-2-yl)ethanol]	++ (0.6 to 0.8 are scored as ‘++’)
Cc1nnc(CC(O)c2cc(-c3ccc(C(F)(F)F)cc3)ccc2F)o1 (stereo not drawn) [Example 2, 1-[2-fluoro-5-[4-(trifluoromethyl)phenyl]phenyl]-2-(5-methyl-1,3,4-oxadiazol-2-yl)ethanol]	++ (0.6 to 0.8 are scored as ‘++’)
Cc1nnc(CC(OC(N)=O)c2cc(-c3ccc(C(F)(F)F)cc3)ccc2F)o1 (stereo not drawn) [Example 3, [1-[2-fluoro-5-[4-(trifluoromethyl)phenyl]phenyl]-2-(5-methyl-1,3,4-oxadiazole-2-yl)ethyl] carbamate]	++ (0.6 to 0.8 are scored as ‘++’)
Cc1nnc(CC(OC(N)=O)c2cc(-c3ccc(Cl)cc3)ccc2F)o1 (stereo not drawn) [Example 4, [1-[5-(4-chlorophenyl)-2-fluoro-phenyl]-2-(5-methyl-1,3,4-oxadiazol-2-yl)ethyl] carbamate]	++ (0.6 to 0.8 are scored as ‘++’)
OC(Cc1nnco1)c1cc(-c2ccc(C(F)(F)F)cc2)ccc1F (stereo not drawn) [Example 5, 1-[2-fluoro-5-[4-(trifluoromethyl)phenyl]phenyl]-2-(1,3,4-oxadiazol-2-yl)ethanol]	+ (0.2 to 0.6 are scored as ‘+’)
Cc1nnc(CC(OC(N)=O)c2cccc(-c3ccc(C(F)(F)F)cc3)c2)o1 (stereo not drawn) [Example 7, [2-(5-methyl-1,3,4-oxadiazol-2-yl)-1-[3-[4-(trifluoromethyl)phenyl]phenyl]ethyl]carbamate]	++ (0.6 to 0.8 are scored as ‘++’)
Cc1nnc(CC(O)c2cc(CCC(F)(F)F)ccc2F)o1 (stereo not drawn) [Example 10, 1-[2-fluoro-5-(3,3,3-trifluoropropyl)phenyl]-2-(5-methyl-1,3,4-oxadiazol-2-yl)ethanol]	+ (0.2 to 0.6 are scored as ‘+’)
Cc1nnc(CC(OC(N)=O)c2cc(CCC(F)(F)F)ccc2F)o1 (stereo not drawn) [Example 11, [1-[2-fluoro-5-(3,3,3-trifluoropropyl)phenyl]-2-(5-methyl-1,3,4-oxadiazol-2-yl)ethyl] carbamate]	+ (0.2 to 0.6 are scored as ‘+’)
Cc1nnc(CC(OC(N)=O)c2cc(OCCCC(F)(F)F)ccc2F)o1 (stereo not drawn) [Example 16, [1-[2-fluoro-5-(4,4,4-trifluorobutoxy)phenyl]-2-(5-methyl-1,3,4-oxadiazol-2-yl)ethyl] carbamate]	++ (0.6 to 0.8 are scored as ‘++’)
Cc1nnc(CC(O)c2cc(OCC(F)(F)F)ccc2F)o1 (stereo not drawn) [Example 17, 1-[2-fluoro-5-(2,2,2-trifluoroethoxy)phenyl]-2-(5-methyl-1,3,4-oxadiazol-2-yl)ethanol]	+ (0.2 to 0.6 are scored as ‘+’)
Cc1nnc(CC(OC(N)=O)c2cc(OCC(F)(F)F)ccc2F)o1 (stereo not drawn) [Example 18, [1-[2-fluoro-5-(2,2,2-trifluoroethoxy)phenyl]-2-(5-methyl-1,3,4-oxadiazol-2-yl)ethyl] carbamate]	+ (0.2 to 0.6 are scored as ‘+’)
Cc1nnc(CC(O)c2cccc(OCCCC(F)(F)F)c2)o1 (stereo not drawn) [Example 19, 2-(5-methyl-1,3,4-oxadiazol-2-yl)-1-[3-(4,4,4-trifluorobutoxy)phenyl]ethanol]	+ (0.2 to 0.6 are scored as ‘+’)
Cc1nnc(CC(OC(N)=O)c2cccc(OCCCC(F)(F)F)c2)o1 (stereo not drawn) [Example 20, [2-(5-methyl-1,3,4-oxadiazol-2-yl)-1-[3-(4,4,4-trifluorobutoxy)phenyl]ethyl] carbamate]	+ (0.2 to 0.6 are scored as ‘+’)
CCCCOc1ccc(F)c(C(Cc2nnc(C)o2)OC(N)=O)c1 (stereo not drawn) [Example 22, [1-(5-butoxy-2-fluoro-phenyl)-2-(5-methyl-1,3,4-oxadiazol-2-yl)ethyl] carbamate]	+ (0.2 to 0.6 are scored as ‘+’)
OC(Cc1nnco1)c1cc(OCCCC(F)(F)F)ccc1F (stereo not drawn) [Example 23, 1-[2-fluoro-5-(4,4,4-trifluorobutoxy)phenyl]-2-(1,3,4-oxadiazol-2-yl)ethanol]	+ (0.2 to 0.6 are scored as ‘+’)
NC(=O)OC(Cc1nnco1)c1cc(OCCCC(F)(F)F)ccc1F (stereo not drawn) [Example 24, [1-[2-fluoro-5-(4,4,4-trifluorobutoxy)phenyl]-2-(1,3,4-oxadiazol-2-yl)ethyl] carbamate]	++ (0.6 to 0.8 are scored as ‘++’)
CCCCCc1ccc(F)c(C(Cc2nnc(C)o2)OC(N)=O)c1 (stereo not drawn) [Example 28, [1-(2-fluoro-5-pentyl-phenyl)-2-(5-methyl-1,3,4-oxadiazol-2-yl)ethyl] carbamate]	++ (0.6 to 0.8 are scored as ‘++’)

Structure (SMILES)	6 Hz, 44 mA protection rate
Cc1nnc(CC(O)c2cc(CCCCC(F)(F)F)ccc2F)o1 (stereo not drawn) [Example 32, 1-[2-fluoro-5-(5,5,5-trifluoropentyl)-phenyl]-2-(5-methyl-1,3,4-oxadiazol-2-yl)ethanol]	+ (0.2 to 0.6 are scored as ‘+’)
Cc1nnc(CC(OC(N)=O)c2cc(CCCC(F)(F)F)ccc2F)o1 (stereo not drawn) [Example 33, [1-[2-fluoro-5-(4,4,4-trifluorobutyl)phenyl]-2-(5-methyl-1,3,4-oxadiazol-2-yl)ethyl] carbamate]	+ (0.2 to 0.6 are scored as ‘+’)
Cc1nnc(CC(OC(N)=O)c2cc(CCCCC(F)(F)F)ccc2F)o1 (stereo not drawn) [Example 34, [1-[2-fluoro-5-(5,5,5-trifluoropentyl)phenyl]-2-(5-methyl-1,3,4-oxadiazol-2-yl)ethyl] carbamate]	++ (0.6 to 0.8 are scored as ‘++’)
Cc1nnc(CC(O)c2cc(C(=O)NCCC(F)(F)F)ccc2F)o1 (stereo not drawn) [Example 37, 4-fluoro-3-[1-hydroxy-2-(5-methyl-1,3,4-oxadiazol-2-yl)ethyl]-N-(3,3,3-trifluoropropyl)benzamide]	+ (0.2 to 0.6 are scored as ‘+’)
Cc1nnc(CC(O)c2cc(OCCCC(F)(F)F)ccc2Cl)o1 (stereo not drawn) [Example 39, 1-[2-chloro-5-(4,4,4-trifluorobutoxy)phenyl]-2-(5-methyl-1,3,4-oxadiazol-2-yl)ethanol]	+ (0.2 to 0.6 are scored as ‘+’)
Cc1nnc(CC(O)c2cc(-c3ccc(C(F)(F)F)cc3)ccc2C)o1 (stereo not drawn) [Example 42, 2-(5-methyl-1,3,4-oxadiazol-2-yl)-1-[2-methyl-5-[4-(trifluoromethyl)phenyl]phenyl]ethanol]	++ (0.6 to 0.8 are scored as ‘++’)
COc1ccc(-c2ccc(C(F)(F)F)cc2)cc1C(O)Cc1nnc(C)o1 (stereo not drawn) [Example 43, 1-[2-methoxy-5-[4-(trifluoromethyl)phenyl]phenyl]-2-(5-methyl-1,3,4-oxadiazol-2-yl)ethanol]	+ (0.2 to 0.6 are scored as ‘+’)
Cc1nnc(CC(O)c2cc(-c3ccc(C(F)(F)F)cc3)ccc2Cl)o1 (stereo not drawn) [Example 48, 1-[2-chloro-5-[4-(trifluoromethyl)phenyl]phenyl]-2-(5-methyl-1,3,4-oxadiazol-2-yl)ethanol]	++ (0.6 to 0.8 are scored as ‘++’)
Cc1nnc(CC(OC(N)=O)c2cc(-c3ccc(C(F)(F)F)cc3)ccc2Cl)o1 (stereo not drawn) [Example 50, [1-[2-chloro-5-[4-(trifluoromethyl)phenyl]phenyl]-2-(5-methyl-1,3,4-oxadiazol-2-yl)ethyl] carbamate]	++ (0.6 to 0.8 are scored as ‘++’)
NC(=O)OC(Cc1nnco1)c1cc(-c2ccc(C(F)(F)F)cc2)ccc1Cl (stereo not drawn) [Example 51, [1-[2-chloro-5-[4-(trifluoromethyl)phenyl]phenyl]-2-(1,3,4-oxadiazol-2-yl)ethyl]carbamate]	+ (0.2 to 0.6 are scored as ‘+’)
OC(Cc1nnco1)c1cccc(-c2ccc(C(F)(F)F)cc2)c1 (stereo not drawn) [Example 52, 2-(1,3,4-oxadiazol-2-yl)-1-[3-[4-(trifluoromethyl)phenyl]phenyl]ethanol]	+ (0.2 to 0.6 are scored as ‘+’)
CCc1nnc(CC(O)c2cccc(-c3ccc(C(F)(F)F)cc3)c2)o1 (stereo not drawn) [Example 53, 2-(5-ethyl-1,3,4-oxadiazol-2-yl)-1-[3-[4-(trifluoromethyl)phenyl]phenyl]ethanol]	+ (0.2 to 0.6 are scored as ‘+’)
CC(=O)OC(Cc1nnc(C)o1)c1cccc(-c2ccc(C(F)(F)F)cc2)c1 (stereo not drawn) [Example 55, [2-(5-methyl-1,3,4-oxadiazol-2-yl)-1-[3-[4-(trifluoromethyl)phenyl]phenyl]ethyl]acetate]	+ (0.2 to 0.6 are scored as ‘+’)
COC(Cc1nnc(C)o1)c1cccc(-c2ccc(C(F)(F)F)cc2)c1 (stereo not drawn) [Example 56, 2-[2-methoxy-2-[3-[4-(trifluoromethyl)phenyl]phenyl]ethyl]-5-methyl-1,3,4-oxadiazole]	++ (0.6 to 0.8 are scored as ‘++’)
Cc1nnc(CC(O)c2cccc(-c3ccc(OC(F)(F)F)cc3)c2)o1 (stereo not drawn) [Example 59, 2-(5-methyl-1,3,4-oxadiazol-2-yl)-1-[3-[4-(trifluoromethoxy)phenyl]phenyl]ethanol]	++ (0.6 to 0.8 are scored as ‘++’)
Cc1nnc(CC(O)c2cccc(-c3ccc(Cl)cc3)c2)o1 (stereo not drawn) [Example 65, 1-[3-(4-chlorophenyl)phenyl]-2-(5-methyl-1,3,4-oxadiazol-2-yl)ethanol]	++ (0.6 to 0.8 are scored as ‘++’)

Source: patent publication US12145914B2, “Compound having oxadiazole and pharmaceutical composition containing the same” (SK BIOPHARMACEUTICALS CO., LTD., priority 2018, dated 2024)
